Earlier results on 2 compounds are cited in patent US9255080B2, “Quinazolinedione derivatives as PARP inhibitors” (Janssen Pharmaceutica NV, priority 2004, dated 2016).

Data set [1] has as its system ischemia and reperfusion of the heart. To be noted: rabbits, cited from earlier work.
In data set [2] the test system is colitis induced by trinitrobenzene sulfonic acid. To be noted: rats, colitis by intraluminal trinitrobenzene sulfonic acid in 50% ethanol; cited from earlier work.

For the compound `Oc1cccc2c(O)nccc12` [1,5-dihydroxyisoquinoline], the “reduction in infarct size” value in data set [1] (single injection 1 mg/kg) is 38-48%.

In the case of `NC(=O)c1cccc(N)c1` [3-amino-benzamide], the “effect on inflammatory response and distal colon” value in data set [2] was “reduced the inflammatory response and restored the morphology and the energetic status of the distal colon”. In addition, the “reduction in infarct size in the heart” value in data set [1] (single injection 10 mg/kg, one minute before occlusion or one minute before reperfusion) was 32-42%.
